Test results reported in patent US20200368247A1, “CENICRIVIROC FOR THE TREATMENT OF FIBROSIS” (Tobira Therapeutics, Inc., priority 2014, published 2020).

What was measured:
[1] = tested on: HIV-1; experiment: Study 202 Phase 2b, virologic response (HIV-1 RNA <50 copies/mL, FDA Snapshot), with FTC/TDF; conditions: for subjects with virologic success (HIV-1 RNA <50 copies/mL): EFV
Excerpt: Subjects with a history of HIV-2, hepatitis B and/or C, cirrhosis of the liver or any known active or chronic active liver disease were excluded from the study.
The primary efficacy endpoint was virologic response at Week 24, defined as HIV-1 RNA <50 copies/mL using the FDA Snapshot Algorithm.

[2] = Study 202 biomarkers of inflammation; format: in vivo, human
Protocol: As an exploratory analysis, levels of inflammation biomarkers MCP-1, sCD14, high sensitivity C-reactive protein [hs-CRP], interleukin-6 [IL-6], D-dimer, and fibrinogen) were measured. Baseline values and changes from baseline at Week 24 and Week 48 of MCP-1, sCD14, hs-CRP, IL-6, D-dimer, and fibrinogen are summarized in Table 25.
The sCD14 samples were originally analyzed in 2 separate batches: Batch 1 included samples leading up to the Week 24 primary analysis and Batch 2 included Week 32 and Week 48 (end of study) samples. A repeat analysis of archived samples all analyzed in one batch was conducted for consistency in analysis across time points. To control for the effects of covariates, a linear mixed-model repeated-measures analysis was conducted on the changes from baseline in sCD14 (analysis dated September 2013).

[3] = Study 202 treatment-emergent laboratory abnormalities (DAIDS grade); format: in vivo, human
Excerpt: The 12th subject (Subject 42001) had 2 consecutive CPK elevations (Grade 3 followed by Grade 4) that returned to normal values while continuing treatment at a subsequent visit. None of the CPK elevations were associated with clinical symptoms; no subjects discontinued due to CPK elevations and there were no differences in AEs related to musculoskeletal disorders between the CVC and EFV arms.
The number of subjects with graded treatment-emergent laboratory abnormalities in selected liver parameters of interest is shown in Table 34. No Grade 4 ALT or AST elevations were observed. Except for one Grade 3 AST elevation, all ALT and AST elevations were Grade 1 or Grade 2. […] All abnormalities in bilirubin were Grade 1 or Grade 2. […]

[4] = Study 202 ECG abnormalities; format: in vivo, human; conditions: All CVC (N = 115); EFV (N = 28), through Week 48
[5] = All CVC (N = 115), EFV (N = 28)
[6] = All CVC (N = 115), EFV (N = 28), through Week 48

O=C1Nc2ccc(Cl)cc2[C@@](C#CC2CC2)(C(F)(F)F)O1 [EFV, efavirenz, reference compound]
2 (7%) n (%): ALT abnormality, worst Grade 1 [3, 5] | Alanine aminotransferase (ALT) abnormality, any worst grade [3, 5] | CPK increased, Grade 3 [3, 6] | Creatine phosphokinase (CPK) increased (Grade 3 or 4) [3, 6]
640000 pg/mL: sCD14 change from baseline at Week 48, Mean ([2]; EFV 600 mg)
1 (4%) n (%): Bilirubin abnormality, any worst grade [3, 5] | Bilirubin abnormality, worst Grade 1 [3, 5] | Any Grade 4 laboratory abnormality [3, 6] | Neutrophils decreased (Grade 3 or 4) [3, 6] | Neutrophils decreased, Grade 4 [3, 6] | Phosphate decreased (Grade 3 or 4) [3, 6] | Phosphate decreased, Grade 3 [3, 6] | PR Abnormally high (210 ms ≤ abnormally high) [4]
46%: Worst Grade 1 laboratory abnormality, % ([3]; EFV)
2e+06 pg/mL: sCD14 Baseline value, Mean ([2]; EFV 600 mg)
170000 pg/mL: sCD14 change from baseline at Week 32, Median ([2]; EFV 600 mg)
0 n (%): ALT abnormality, worst Grade 2 [3, 5] | ALT abnormality, worst Grade 3 [3, 5] | ALT abnormality, worst Grade 4 [3, 5] | AST abnormality, worst Grade 2 [3, 5] | AST abnormality, worst Grade 3 [3, 5] | AST abnormality, worst Grade 4 [3, 5] | Bilirubin abnormality, worst Grade 2 [3, 5] | Bilirubin abnormality, worst Grade 3 [3, 5] | Bilirubin abnormality, worst Grade 4 [3, 5] | AST increased, Grade 3 [3, 6] | AST increased, Grade 4 [3, 6] | Aspartate aminotransferase (AST) increased (Grade 3 or 4) [3, 6] | CPK increased, Grade 4 [3, 6] | Fibrinogen decreased (Grade 3 or 4) [3, 6] | Fibrinogen decreased, Grade 3 [3, 6] | Fibrinogen decreased, Grade 4 [3, 6] | Hemoglobin decreased (Grade 3 or 4) [3, 6] | Hemoglobin decreased, Grade 3 [3, 6] | Hemoglobin decreased, Grade 4 [3, 6] | Neutrophils decreased, Grade 3 [3, 6] | Phosphate decreased, Grade 4 [3, 6] | Prothrombin time/international normalized ratio increased (Grade 3 or 4) [3, 6] | Prothrombin time/international normalized ratio increased, Grade 3 [3, 6] | Prothrombin time/international normalized ratio increased, Grade 4 [3, 6] | HR Abnormally high (120 bpm ≤ abnormally high) [4] | HR Abnormally low (≤ 50 bpm) [4] | QRS Abnormally high (120 ms ≤ abnormally high) [4] | QRS Abnormally low (≤ 50 ms) [4] | QTcB interval Increase by >60 ms [4] | QTcB interval Pathologically prolonged (> 500 ms) [4] | QTcB interval Prolonged (480 ms < prolonged ≤ 500 ms) [4] | QTcF interval Borderline (450 ms ≤ borderline ≤ 480 ms) [4] | QTcF interval Increase by >60 ms [4] | QTcF interval Pathologically prolonged (> 500 ms) [4] | QTcF interval Prolonged (480 ms < prolonged ≤ 500 ms) [4]
180000 pg/mL: sCD14 change from baseline at Week 12, Median ([2]; EFV 600 mg)
3 (11%) n (%): AST abnormality, worst Grade 1 [3, 5] | Aspartate aminotransferase (AST) abnormality, any worst grade [3, 5] | Any Grade 3 laboratory abnormality [3, 6] | QTcB interval Borderline (450 ms ≤ borderline ≤ 480 ms) [4]
130000 pg/mL: sCD14 change from baseline at Week 24, Median ([2]; EFV 600 mg)
480000 pg/mL: sCD14 change from baseline at Week 32, Mean ([2]; EFV 600 mg)
11%: Worst Grade 3 laboratory abnormality, % ([3]; EFV)
39%: subjects who prematurely discontinued the study ([1]; EFV arm)
89%: Any graded (Grade 1-4) laboratory abnormality, % ([3]; EFV)
460000 pg/mL: sCD14 change from baseline at Week 48, Median ([2]; EFV 600 mg)
50%: subjects with virologic success (HIV-1 RNA <50 copies/mL) ([1]; Week 48)
4%: Worst Grade 4 laboratory abnormality, % ([3]; EFV)
230000 pg/mL: sCD14 change from baseline at Week 24, Mean ([2]; EFV 600 mg)
remained at baseline values: plasma MCP-1 over time ([2]; Study 202, up to Week 48)
4 (14%) n (%): Any Grade 3 or Grade 4 laboratory abnormality [3, 6] | QTcB interval Increase by >30-60 ms [4] | QTcF interval Increase by >30-60 ms [4]
29%: Worst Grade 2 laboratory abnormality, % ([3]; EFV)
71%: subjects with virologic success (HIV-1 RNA <50 copies/mL) ([1]; Week 24)
90000 pg/mL: sCD14 change from baseline at Week 12, Mean ([2]; EFV 600 mg)
